# Test results taken from ChEMBL document CHEMBL1139069, “Novel antiproliferative analogs of the Taq DNA polymerase inhibitor catalpol” (2007).
# Legend:
# Assay type in all cases: functional
# A2780 = experiment: Antiproliferative activity against human A2780 cells after 48 hrs by SRB assay; conditions: A2780, 48 h
# SW1573 [1] = experiment: Antiproliferative activity against human SW1573 cells after 48 hrs by SRB assay; conditions: SW1573, 48 h
# WiDr = experiment: Antiproliferative activity against human WiDr cells after 48 hrs by SRB assay
# T47D = experiment: Antiproliferative activity against human T47D cells after 48 hrs by SRB assay
# HBL-100 [2] = experiment: Antiproliferative activity against human HBL100 cells after 48 hrs by SRB assay; conditions: HBL-100, 48 h
# HeLa = experiment: Antiproliferative activity against human HeLa cells after 48 hrs by SRB assay
# HBL-100 [3] = experiment: Cell cycle arrest in human HBL100 cells assessed as accumulation at G0/G1 phase at 5 uM after 24 hrs by flow cytometry
# HBL-100 [4] = experiment: Cell cycle arrest in human HBL100 cells assessed as accumulation at S phase at 5 uM after 24 hrs by flow cytometry
# HBL-100 [5] = experiment: Cell cycle arrest in human HBL100 cells assessed as accumulation at G2/M phase at 5 uM after 24 hrs by flow cytometry
# HBL-100 [6] = experiment: Cell cycle arrest in human HBL100 cells assessed as accumulation at G0/G1 phase at 10 uM after 24 hrs by flow cytometry
# HBL-100 [7] = experiment: Cell cycle arrest in human HBL100 cells assessed as accumulation at S phase at 10 uM after 24 hrs by flow cytometry
# HBL-100 [8] = experiment: Cell cycle arrest in human HBL100 cells assessed as accumulation at G2/M phase at 10 uM after 24 hrs by flow cytometry
# SW1573 [9] = experiment: Cell cycle arrest in human SW1573 cells assessed as accumulation at G0/G1 phase at 5 uM after 24 hrs by flow cytometry
# SW1573 [10] = experiment: Cell cycle arrest in human SW1573 cells assessed as accumulation at S phase at 5 uM after 24 hrs by flow cytometry
# SW1573 [11] = experiment: Cell cycle arrest in human SW1573 cells assessed as accumulation at G2/M phase at 5 uM after 24 hrs by flow cytometry
# SW1573 [12] = experiment: Cell cycle arrest in human SW1573 cells assessed as accumulation at G0/G1 phase at 10 uM after 24 hrs by flow cytometry
# SW1573 [13] = experiment: Cell cycle arrest in human SW1573 cells assessed as accumulation at S phase at 10 uM after 24 hrs by flow cytometry
# SW1573 [14] = experiment: Cell cycle arrest in human SW1573 cells assessed as accumulation at G2/M phase at 10 uM after 24 hrs by flow cytometry
GI50 (A2780),GI50 (SW1573 [1]),GI50 (T47D),GI50 (HeLa),Compound,GI50 (WiDr),GI50 (HBL-100 [2]),Activity (HBL-100 [3]),Activity (HBL-100 [4]),Activity (HBL-100 [5]),Activity (HBL-100 [6]),Activity (HBL-100 [7]),Activity (HBL-100 [8]),Activity (SW1573 [9]),Activity (SW1573 [10]),Activity (SW1573 [11]),Activity (SW1573 [12]),Activity (SW1573 [13]),Activity (SW1573 [14])
36 µM,88 µM,87 µM,77 µM,CC(C)(C)[Si](C)(C)OC[C@]12O[C@H]1[C@@H](O)[C@@H]1C=CO[C@@H](O[C@H]3O[C@H](CO)[C@@H](O)[C@H](O)[C@H]3O)[C@@H]12,81 µM,52 µM,–,–,–,–,–,–,–,–,–,–,–,–
2.6 µM,4.8 µM,3.6 µM,3.6 µM,CC(C)(C)[Si](C)(C)OC[C@H]1O[C@H](O[C@@H]2OC=C[C@H]3[C@H](O)[C@@H]4O[C@]4(CO[Si](C)(C)C(C)(C)C)[C@@H]23)[C@H](O)[C@@H](O)[C@@H]1O,2.7 µM,2.8 µM,54%,35%,11%,51%,30%,19%,49%,37%,14%,63%,20%,17%
2.4 µM,1.8 µM,2.7 µM,2.1 µM,CC(C)(C)[Si](OC[C@H]1O[C@H](O[C@@H]2OC=C[C@H]3[C@H](O[Si](c4ccccc4)(c4ccccc4)C(C)(C)C)[C@@H]4O[C@]4(CO[Si](c4ccccc4)(c4ccccc4)C(C)(C)C)[C@@H]23)[C@H](O)[C@@H](O)[C@@H]1O)(c1ccccc1)c1ccccc1,2 µM,2.4 µM,56%,32%,12%,59%,30%,11%,58%,29%,13%,59%,37%,4%
2.4 µM,2.7 µM,4.1 µM,4.4 µM,CC(C)(C)[Si](OC[C@H]1O[C@H](O[C@@H]2OC=C[C@H]3[C@H](O)[C@@H]4O[C@]4(CO[Si](c4ccccc4)(c4ccccc4)C(C)(C)C)[C@@H]23)[C@H](O)[C@@H](O)[C@@H]1O)(c1ccccc1)c1ccccc1,3.4 µM,2.7 µM,52%,33%,15%,59%,28%,13%,54%,32%,14%,61%,28%,11%

# The remaining lines, values behind:
Compound,GI50 (A2780),GI50 (SW1573 [1]),GI50 (T47D),GI50 (HeLa),GI50 (WiDr),GI50 (HBL-100 [2]),Activity (HBL-100 [3]),Activity (HBL-100 [4]),Activity (HBL-100 [5]),Activity (HBL-100 [6]),Activity (HBL-100 [7]),Activity (HBL-100 [8]),Activity (SW1573 [9]),Activity (SW1573 [10]),Activity (SW1573 [11]),Activity (SW1573 [12]),Activity (SW1573 [13]),Activity (SW1573 [14])
CC(=O)OC[C@H]1O[C@H](O[C@@H]2OC=C[C@H]3[C@H](OC(C)=O)[C@@H]4O[C@]4(COC(C)=O)[C@@H]23)[C@H](OC(C)=O)[C@@H](OC(C)=O)[C@@H]1OC(C)=O,60 µM,> 100 µM,> 100 µM,–,> 100 µM,–,–,–,–,–,–,–,–,–,–,–,–,–
C[C@]1(O)C[C@@H](O)[C@]2(O)C=CO[C@@H](O[C@H]3O[C@H](CO)[C@@H](O)[C@H](O)[C@H]3O)[C@@H]21 [HARPAGIDE],> 100 µM,> 100 µM,> 100 µM,–,> 100 µM,–,–,–,–,–,–,–,–,–,–,–,–,–
OC[C@H]1O[C@@H](O[C@@H]2OC=C[C@H]3[C@H](O)[C@@H]4O[C@]4(CO)[C@@H]23)[C@H](O)[C@@H](O)[C@@H]1O [CATALPOL],> 100 µM,> 100 µM,> 100 µM,–,> 100 µM,–,–,–,–,–,–,–,–,–,–,–,–,–
O=C(OC[C@H]1O[C@H](O[C@@H]2OC=C[C@H]3[C@H](OC(=O)c4ccccc4)[C@@H]4O[C@]4(COC(=O)c4ccccc4)[C@@H]23)[C@H](OC(=O)c2ccccc2)[C@@H](OC(=O)c2ccccc2)[C@@H]1OC(=O)c1ccccc1)c1ccccc1,> 100 µM,> 100 µM,> 100 µM,> 100 µM,> 100 µM,> 100 µM,–,–,–,–,–,–,–,–,–,–,–,–
